Square brackets hold non-standard residues; d marks the D form. Ends that are not written are not given here. Peptide text beside a SMILES is read from it.
How the values were obtained:
[1] = In vitro peptide stability in human serum (RP-HPLC); details: for half-life at 50 µg/mL: human, human serum, 25% (v/v) in RPMI
Description: The initial time is recorded, and at known time intervals 50 µL of the reaction solution is removed and added to 100 µL of 6% aqueous trichloroacetic acid (TCA) for precipitation of serum proteins. […] The reaction supernatant is then analyzed using RP-HPLC (Agilent 1200 LC System) on a ZORBAX Eclipse XDB-C18, 4.6×150 mm, 5 µm column (Agilent). […] Fluorescence is detected at an excitation wavelength of 280 nm and emission wavelength of 340 nm. Kinetic analysis was carried out by least-squares analysis of the logarithm of the integration peak area versus time.

human CMKLR1 = target: T1, human CMKLR1 (Homo sapiens, UniProt Q99788); test: Ca2+ mobilization (CellLux imaging) agonist assay in HEK293A cells expressing CMKLR1 and Gα15; assay type: cell-based; details: Ca2+ mobilization, CMKLR1, decimal comma; for EC50: NR where no EC50 is given, read-out: EC50
T1 construct: host or cells: HEK293A (Invitrogen), stably expressing human Gα15
T1 sequence (Q99788 1-373): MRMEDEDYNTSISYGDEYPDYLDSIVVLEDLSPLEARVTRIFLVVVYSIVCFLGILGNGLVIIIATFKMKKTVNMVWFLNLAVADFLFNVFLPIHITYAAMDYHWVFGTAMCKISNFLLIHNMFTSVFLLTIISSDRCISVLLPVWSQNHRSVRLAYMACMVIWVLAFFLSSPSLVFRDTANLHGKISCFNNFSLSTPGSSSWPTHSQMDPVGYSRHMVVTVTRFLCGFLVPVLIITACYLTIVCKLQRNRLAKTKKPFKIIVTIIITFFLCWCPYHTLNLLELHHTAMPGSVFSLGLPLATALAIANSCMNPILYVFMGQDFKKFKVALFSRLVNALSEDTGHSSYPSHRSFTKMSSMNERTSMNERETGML
Description: HEK293A cells (Invitrogen) expressing CMKLR1 and Gα15 were seeded at 5*10^4 cells/well in a poly-D-lysine coated 96-well black well/clear bottom plate (BD Falcon) and cultured overnight. From eighteen to twenty-four hours later, cells were loaded with FLUO4-AM (Invitrogen). Then the cells were washed two times with C1 solution (130 mM NaCl, 5 mM KCl, 10 mM HEPES pH 7.4, 2 mM CaCl2, and 10 mM Glucose). After the final wash, a 100 µL of residual volume remained on the cells. Peptides were dissolved in 10% DMSO to a concentration of 1 mM and were diluted in C1 solution with 0.1 % BSA. They were aliquoted as 2x solutions in 96-well plates and were simultaneously transferred by the robotic system within the imager from the ligand plate to the cell plate. […] Fluorescence data was generated in duplicate and experiments were repeated for at least three times. […] For the calculation of concentration-response curves, signals of two wells receiving the same concentration of test substances were averaged and the fluorescence changes of corresponding buffer C1 wells were subtracted. Signals were normalized to background fluorescence. For the calculation of EC50 values, plots of amplitude versus concentrations were prepared in SigmaPlot 11.

Row | half-life at 50 µg/mL [1] [min] | max response (human CMKLR1) | EC50 (human CMKLR1) [nM] | t1/2 ([1]; metabolic stability in human serum) [min] | Compound
1 | 77 | 1,61 DF/F0 | 3.62 | – | CC(C)C[C@H](NC(=O)[C@H](N)Cc1ccc(O)cc1)C(=O)N1CCC[C@H]1C(=O)NCC(=O)N[C@@H](CCC(N)=O)C(=O)N[C@@H](Cc1ccc(O)cc1)C(=O)N[C@@H](C)C(=O)N[C@@H](Cc1ccccc1)C(=O)N[C@@H](CO)C(=O)O [compound 82] (H-[dY]LPGQYAFS-OH; N-terminus assumed)
2 | 86 | 1,31 DF/F0 | 313 | – | CC(C)C[C@H](NC(=O)[C@@H]1CCCN1C(=O)[C@@H]1CCCN1)C(=O)N[C@H](Cc1c[nH]c2ccccc12)C(=O)N[C@@H](CCC(N)=O)C(=O)N[C@@H](Cc1ccc(O)cc1)C(=O)N[C@@H](C)C(=O)N[C@H](CC(=O)O)C(=O)N[C@H](CO)C(=O)O [compound 153] (H-PPL[dW]QYA[dD][dS]-OH; N-terminus assumed)
3 | 230 | 0,73 DF/F0 | 92.9 | – | CC(C)C[C@H](NC(=O)[C@H](N)Cc1ccccc1)C(=O)N1CCC[C@H]1C(=O)NCC(=O)N[C@@H](CCC(N)=O)C(=O)N[C@@H](Cc1ccc(O)cc1)C(=O)N[C@@H](C)C(=O)N[C@@H](Cc1ccccc1)C(=O)N[C@@H](Cc1ccccc1)C(=O)O [compound 55] (H-[dF]LPGQYAFF-OH; N-terminus assumed)
4 | 19 | 0,57 DF/F0 | 114 | – | YLPGQYLFL-OH [compound 56]
5 | 3250 | 1,63 DF/F0 | 90.5 | – | CC(C)C[C@@H](NC(=O)[C@H](Cc1c[nH]cn1)NC(=O)[C@H](N)CO)C(=O)NCC(=O)N[C@@H](CCC(N)=O)C(=O)N[C@@H](Cc1ccc(O)cc1)C(=O)N[C@@H](C)C(=O)N[C@H](CC(=O)O)C(=O)N[C@@H](CO)C(=O)O [compound 96] (H-[dS]H[dL]GQYA[dD]S-OH; N-terminus assumed)
6 | 56 | 1,55 DF/F0 | 104 | – | CC(C)C[C@@H](NC(=O)[C@H](Cc1c[nH]cn1)NC(=O)[C@@H](N)CO)C(=O)NCC(=O)N[C@@H](CCC(N)=O)C(=O)N[C@@H](Cc1ccccc1)C(=O)N[C@H](Cc1c[nH]c2ccccc12)C(=O)N[C@@H](Cc1ccccc1)C(=O)N[C@H](CO)C(=O)O [compound 139] (H-SH[dL]GQF[dW]F[dS]-OH; N-terminus assumed)
7 | 10 | 1,37 DF/F0 | 69.4 | – | C[C@H](N)C(=O)N[C@@H](Cc1ccccc1)C(=O)NCC(=O)N[C@H](Cc1ccccc1)C(=O)N[C@H](CCC(N)=O)C(=O)N[C@@H](CO)C(=O)N[C@@H](C)C(=O)N[C@@H](Cc1ccc(O)cc1)C(=O)N[C@@H](CO)C(=O)O [compound 134] (H-AFG[dF][dQ]SAYS-OH; N-terminus assumed)
8 | 31 | 0,66 DF/F0 | 2460 | – | CC(C)C[C@H](NC(=O)[C@@H](N)CCC(N)=O)C(=O)N1CCC[C@H]1C(=O)NCC(=O)N[C@@H](CCC(N)=O)C(=O)N[C@@H](Cc1ccccc1)C(=O)N[C@@H](C)C(=O)N[C@H](Cc1ccccc1)C(=O)N[C@@H](Cc1ccccc1)C(=O)O [compound 71] (H-QLPGQFA[dF]F-OH; N-terminus assumed)
9 | – | 1,74 DF/F0 | – | 87 | CC(C)C[C@H](NC(=O)[C@@H](N)Cc1ccc(O)cc1)C(=O)N1CCC[C@H]1C(=O)N[C@H](CCC(N)=O)C(=O)N[C@@H](CCC(N)=O)C(=O)N[C@@H](Cc1ccc(O)cc1)C(=O)N[C@@H](C)C(=O)N[C@@H](Cc1ccccc1)C(=O)N[C@H](Cc1ccccc1)C(=O)O [compound 123] (H-YLP[dQ]QYAF[dF]-OH; N-terminus assumed)
10 | 47 | 1,56 DF/F0 | 76.2 | – | C[C@H](NC(=O)[C@H](Cc1ccc(O)cc1)NC(=O)[C@H](CCC(N)=O)NC(=O)CNC(=O)[C@@H]1CCCN1C(=O)[C@H](CCC(=O)O)NC(=O)[C@@H](N)Cc1ccc(O)cc1)C(=O)N[C@@H](Cc1ccccc1)C(=O)N[C@H](CO)C(=O)O [compound 94] (H-YEPGQYAF[dS]-OH; N-terminus assumed)
